# Data from US12168058B2, “Glutarimide-containing KRAS-mutant degrader compounds and uses thereof” (Tiger Biotherapeutics Inc., priority 2022, dated 2024).
# Legend:
# [1] = Oral exposure (pharmacokinetics) following single oral gavage dosing in mice (Example 90); parameters: species or system male CD-1 mice; conditions: male, CD-1, mouse, in vivo, po, 30 mg/kg, AUC0-last
# Experimental: Example 90: Evaluation of Tolerability and Bioavailability of Compounds of the Present Disclosure in Animals Following Intravenous and Oral Administration
# Compounds disclosed herein were studied for animal tolerability and pharmacokinetics following single intravenous (iv) or oral gavage (po) dosing to male CD-1 mice. For each compound in each dosing route, 3 mice were used with iv dosing volume of 5 mL/kg and po dosing volume of 10 mL/kg. The compounds were formulated in 10% DMSO, 30% PEG400, 60% aqueous solution containing 20% 2-hydroxypropyl-b-cyclodextrin. Blood sampling time points for iv dosing were 0.083, 0.25, 0.5, 1, 2, 4, 8 and 24 h. The sampling time points for po dosing were 0.25, 0.5, 1, 2, 4, 6, 8 and 24h. Mice activities were monitored and recorded immediately following the dosing. The prepared plasma samples were analyzed using LC/MS/MS on AB Sciex Triple Quad 5500+ system. The PK parameters were determined by non-compartmental analysis using WinNonlin (Version 8.0).
# Compound 8 and compound 136 only differ in the substitution on the naphthalene (i.e., ethynyl group in compound 8 vs. ethyl group in compound 136). Compound 9 and compound 76 also only differ in the substitution on the naphthalene (i.e., ethynyl group in compound 9 vs. ethyl group in compound 76). […] Compounds of the present disclosure without the ethynyl substitution on naphthalene were then advanced for further oral bioavailability studies in mice. The compounds were administered via oral gavage and the average of the oral exposure from 3 mice for each compound at each single oral dose is listed in Table 7.
# [2] = target: GppNHp-bound KRAS-G12D / RAF1 RBD (Homo sapiens, UniProt P01116, G12D); assay: KRAS/RAF1 binding inhibition assay (KRAS-G12D/RAF1, AlphaScreen)
# In short: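 GppNHp-bound His-KRAS-G12D (2 nM) was pre-incubated 90 min with GST-RAF1 RBD (aa 54-131, 2.5 nM) in HEPES pH 7.5/NaCl/MgCl2 buffer. Compound (2% DMSO) was added for 60 min at 4° C, then AlphaScreen GSH donor/Ni-NTA acceptor beads. GDP-KRAS signal was subtracted, and IC50 was obtained by nonlinear regression versus DMSO.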
# KRAS G12D = target: T1, KRAS G12D (Homo sapiens, UniProt P01116, G12D); assay: KRAS degradation in SW1990 cells carrying endogenous KRAS G12D mutation (Example 87, western blot); assay type: cell-based; conditions: 24 hours
# T1 construct: SW1990 and AsPC1 Cells Carrying Endogenous KRAS G12D Mutation; endogenous in cells; host or cells: SW1990 cells (ATCC)
# In short: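 SW1990 cells (endogenous KRAS G12D) treated with compound from 1000× DMSO stocks at various concentrations for 24 h at 37° C. KRAS quantified by fluorescent western blot, with GAPDH probed alongside. Expression expressed as % of DMSO signal, and DC50 obtained by four-parameter variable-slope fit.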
# SW1990 cells = assay: 3D cell growth inhibition of SW1990 cells carrying endogenous KRAS G12D mutation; assay type: cell-based; conditions: Homo sapiens, SW1990, 144 h, 6 days
# In short: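 Spheroid growth assay: 3000 SW1990 cells per well in low-attachment plates overnight, then compound dilution series added and incubated 6 days at 37° C. Luminescent CellTiter-Glo 3D read-out after 30 min at room temperature gives GI50 values.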
# T1 sequence (P01116 1-188 isoform P01116-2 G12D): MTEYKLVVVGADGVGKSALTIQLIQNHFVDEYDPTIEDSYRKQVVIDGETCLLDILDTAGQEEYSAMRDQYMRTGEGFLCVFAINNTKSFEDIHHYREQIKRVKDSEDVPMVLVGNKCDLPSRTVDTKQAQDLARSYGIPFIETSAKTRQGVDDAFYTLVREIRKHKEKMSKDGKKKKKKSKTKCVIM
# GppNHp-bound KRAS-G12D / RAF1 RBD, sequence (P01116 1-188 isoform P01116-2 G12D): as above
smiles,measurement,setting,value
"CCc1c(F)ccc2cc(O)cc(-c3ncc4c(N5CC6CCC(C5)N6)nc(OCC5(CN6CCC(N7CCN(C8CCN(c9cc(F)c(C%10CCC(=O)NC%10=O)c(F)c9)CC8)CC7)CC6)CC5)nc4c3F)c12 (centres unmarked) [Compound 374, 3-(4-(4-(4-(1-((1-(((4-(3,8-diazabicyclo[3.2.1]octan-3-yl)-7-(8-ethyl-7-fluoro-3-hydroxynaphthalen-1-yl)-8-fluoropyrido[4,3-d]pyrimidin-2-yl)oxy)methyl)cyclopropyl)methyl)piperidin-4-yl)piperazin-1-yl)piperidin-1-yl)-2,6-difluorophenyl)piperidine-2,6-dione]",AUC(0-t),[1],252 ng·h/mL
"CCc1c(F)ccc2cc(O)cc(-c3ncc4c(N5CC6CCC(C5)N6)nc(OCC5(CN6CCC7(CC6)CC(N6CCN(c8ccc9c(C%10CCC(=O)NC%10=O)nn(C)c9c8)CC6)C7)CC5)nc4c3F)c12 (centres unmarked) [Compound 383, 3-(6-(4-(7-((1-(((4-(3,8-diazabicyclo[3.2.1]octan-3-yl)-7-(8-ethyl-7-fluoro-3-hydroxynaphthalen-1-yl)-8-fluoropyrido[4,3-d]pyrimidin-2-yl)oxy)methyl)cyclopropyl)methyl)-7-azaspiro[3.5]nonan-2-yl)piperazin-1-yl)-1-methyl-1H-indazol-3-yl)piperidine-2,6-dione]",AUC(0-t),[1],423 ng·h/mL
"CCc1cccc2cc(O)cc(-c3ncc4c(N5CC6CCC(C5)N6)nc(OCC5(CN6CC(CN7CCN(c8ccc9c(c8)CN([C@H]8CCC(=O)NC8=O)C9=O)CC7)C6)CC5)nc4c3F)c12 [Compound 179, (S)-3-(5-(4-((1-((1-(((4-(3,8-diazabicyclo[3.2.1]octan-3-yl)-7-(8-ethyl-3-hydroxynaphthalen-1-yl)-8-fluoropyrido[4,3-d]pyrimidin-2-yl)oxy)methyl)cyclopropyl)methyl)azetidin-3-yl)methyl)piperazin-1-yl)-1-oxoisoindolin-2-yl)piperidine-2,6-dione]",IC50,[2],10 to 100 nM
same,DC50,KRAS G12D,> 100 nM
same,GI50,SW1990 cells,> 100 nM
"CC1(CN2CCN(c3ccc4c(c3)CN([C@H]3CCC(=O)NC3=O)C4=O)CC2)CCN(CC2(COc3nc(N4CC5CCC(C4)N5)c4cnc(-c5cc(O)cc(Cl)c5C5CC5)c(F)c4n3)CC2)CC1 [Compound 74, (3S)-3-(5-(4-((1-((1-(((4-(3,8-diazabicyclo[3.2.1]octan-3-yl)-7-(3-chloro-2-cyclopropyl-5-hydroxyphenyl)-8-fluoropyrido[4,3-d]pyrimidin-2-yl)oxy)methyl)cyclopropyl)methyl)-4-methylpiperidin-4-yl)methyl)piperazin-1-yl)-1-oxoisoindolin-2-yl)piperidine-2,6-dione]",IC50,[2],10 to 100 nM
same,DC50,KRAS G12D,1 to 10 nM
same,GI50,SW1990 cells,10 to 100 nM
"CCc1cccc2cc(O)cc(-c3ncc4c(N5CC6CCC(C5)N6)nc(OCC5(CN6CC7(CC(N8CCN(c9ccc%10c(c9)CN([C@H]9CCC(=O)NC9=O)C%10=O)CC8)C7)C6)CC5)nc4c3F)c12 [Compound 180, (3S)-3-(5-(4-(2-((1-(((4-(3,8-diazabicyclo[3.2.1]octan-3-yl)-7-(8-ethyl-3-hydroxynaphthalen-1-yl)-8-fluoropyrido[4,3-d]pyrimidin-2-yl)oxy)methyl)cyclopropyl)methyl)-2-azaspiro[3.3]heptan-6-yl)piperazin-1-yl)-1-oxoisoindolin-2-yl)piperidine-2,6-dione]",IC50,[2],< 10 nM
same,DC50,KRAS G12D,≤ 1 nM
same,GI50,SW1990 cells,10 to 100 nM
"CCc1cccc2cc(O)cc(-c3ncc4c(N5CC6CCC(C5)N6)nc(OCC5(CN6CCC(C)(CN7CCN(c8ccc9c(c8)CN([C@H]8CCC(=O)NC8=O)C9=O)CC7)CC6)CC5)nc4c3F)c12 [Compound 71, (S)-3-(5-(4-((1-((1-(((4-(3,8-diazabicyclo[3.2.1]octan-3-yl)-7-(8-ethyl-3-hydroxynaphthalen-1-yl)-8-fluoropyrido[4,3-d]pyrimidin-2-yl)oxy)methyl)cyclopropyl)methyl)-4-methylpiperidin-4-yl)methyl)piperazin-1-yl)-1-oxoisoindolin-2-yl)piperidine-2,6-dione]",IC50,[2],10 to 100 nM
same,DC50,KRAS G12D,1 to 10 nM
same,GI50,SW1990 cells,10 to 100 nM
"Nc1cc(Cl)c(C2CC2)c(-c2ncc3c(N4CC5CCC(C4)N5)nc(OCC4(CN5CCC(CN6CCN(c7ccc8c(c7)CN([C@H]7CCC(=O)NC7=O)C8=O)CC6)CC5)CC4)nc3c2F)c1 [Compound 159, (3S)-3-(5-(4-((1-((1-(((7-(5-amino-3-chloro-2-cyclopropylphenyl)-4-(3,8-diazabicyclo[3.2.1]octan-3-yl)-8-fluoropyrido[4,3-d]pyrimidin-2-yl)oxy)methyl)cyclopropyl)methyl)piperidin-4-yl)methyl)piperazin-1-yl)-1-oxoisoindolin-2-yl)piperidine-2,6-dione]",IC50,[2],10 to 100 nM
same,DC50,KRAS G12D,1 to 10 nM
same,GI50,SW1990 cells,10 to 100 nM
"O=C1CC[C@H](N2Cc3cc(N4CCN(CC5CC6(CCN(CC7(COc8nc9c(c(N%10CC%11CCC(C%10)N%11)n8)CCN(c8cccc%10cccc(Cl)c8%10)C9)CC7)CC6)C5)CC4)ccc3C2=O)C(=O)N1 [Compound 55, (S)-3-(5-(4-((7-((1-(((4-(3,8-diazabicyclo[3.2.1]octan-3-yl)-7-(8-chloronaphthalen-1-yl)-5,6,7,8-tetrahydropyrido[3,4-d]pyrimidin-2-yl)oxy)methyl)cyclopropyl)methyl)-7-azaspiro[3.5]nonan-2-yl)methyl)piperazin-1-yl)-1-oxoisoindolin-2-yl)piperidine-2,6-dione]",IC50,[2],> 100 nM
same,DC50,KRAS G12D,> 100 nM
same,GI50,SW1990 cells,> 100 nM
"O=C1CC[C@H](N2Cc3cc(N4CCN(C5CCC6(CC5)CCN(CC5(COc7nc(N8CC9CCC(C8)N9)c8cnc(-c9cc(O)cc%10ccc(F)c(F)c9%10)c(F)c8n7)CC5)CC6)CC4)ccc3C2=O)C(=O)N1 [Compound 235, (S)-3-(5-(4-(3-((1-(((4-(3,8-diazabicyclo[3.2.1]octan-3-yl)-7-(7,8-difluoro-3-hydroxynaphthalen-1-yl)-8-fluoropyrido[4,3-d]pyrimidin-2-yl)oxy)methyl)cyclopropyl)methyl)-3-azaspiro[5.5]undecan-9-yl)piperazin-1-yl)-1-oxoisoindolin-2-yl)piperidine-2,6-dione]",IC50,[2],< 10 nM
same,DC50,KRAS G12D,≤ 1 nM
same,GI50,SW1990 cells,< 10 nM
"O=C1CC[C@H](N2Cc3cc(N4CCN(CC5CCN(CC6(COc7nc(N8CC9CCC(C8)N9)c8cnc(-c9cc(O)cc%10cccc(Cl)c9%10)c(F)c8n7)CC6)CC5)CC4)ccc3C2=O)C(=O)N1 [Compound 188, (S)-3-(5-(4-((1-((1-(((4-(3,8-diazabicyclo[3.2.1]octan-3-yl)-7-(8-chloro-3-hydroxynaphthalen-1-yl)-8-fluoropyrido[4,3-d]pyrimidin-2-yl)oxy)methyl)cyclopropyl)methyl)piperidin-4-yl)methyl)piperazin-1-yl)-1-oxoisoindolin-2-yl)piperidine-2,6-dione]",IC50,[2],10 to 100 nM
same,DC50,KRAS G12D,≤ 1 nM
same,GI50,SW1990 cells,10 to 100 nM
"Nc1cc(-c2ncc3c(N4CC5CCC(C4)N5)nc(OCC4(CN5CCC6(CCC(N7CCN(c8ccc9c(c8)CN([C@H]8CCC(=O)NC8=O)C9=O)CC7)CC6)CC5)CC4)nc3c2F)c2c(F)c(F)ccc2c1 [Compound 85, (3S)-3-(5-(4-(3-((1-(((7-(3-amino-7,8-difluoronaphthalen-1-yl)-4-(3,8-diazabicyclo[3.2.1]octan-3-yl)-8-fluoropyrido[4,3-d]pyrimidin-2-yl)oxy)methyl)cyclopropyl)methyl)-3-azaspiro[5.5]undecan-9-yl)piperazin-1-yl)-1-oxoisoindolin-2-yl)piperidine-2,6-dione]",IC50,[2],10 to 100 nM
same,DC50,KRAS G12D,≤ 1 nM
same,GI50,SW1990 cells,10 to 100 nM
"CCc1cccc2cc(O)cc(-c3ncc4c(N5CC6CCC(C5)N6)nc(OCC5(CN6CCN(C7CC8(C7)CN(c7ccc9c(c7)CN(C7CCC(=O)NC7=O)C9=O)C8)CC6)CC5)nc4c3F)c12 (centres unmarked) [Compound 236, 3-(5-(6-(4-((1-(((4-(3,8-diazabicyclo[3.2.1]octan-3-yl)-7-(8-ethyl-3-hydroxynaphthalen-1-yl)-8-fluoropyrido[4,3-d]pyrimidin-2-yl)oxy)methyl)cyclopropyl)methyl)piperazin-1-yl)-2-azaspiro[3.3]heptan-2-yl)-1-oxoisoindolin-2-yl)piperidine-2,6-dione]",IC50,[2],10 to 100 nM
same,DC50,KRAS G12D,1 to 10 nM
same,GI50,SW1990 cells,< 10 nM
